Entries after “also recorded” stand apart in the source; their conditions may differ.
Columns and labels:
tomato cells = details: examples of the cited Trulson patents; cited from earlier work
[1] = test system: switchgrass embryogenic callus cultures; experiment: Agrobacterium-mediated transformation of switchgrass with pMBXS323 and selection on sorbitol as sole carbon source; assay type: cell-based; details: medium with sorbitol as sole carbon source; 4-6 wks in the dark at 28° C.
Protocol: Agrobacterium-mediated transformation of switchgrass was performed as previously described (Somleva et al., 2002; Somleva, 2006). Highly embryogenic callus cultures were co-cultured with Agrobacterium tumifaciens strain AGL1 (Lazo et al., 1991) harboring pMBXS323 (FIG. 2) for three days in the dark at 28° C. The Agrobacterium treated cultures were incubated on a medium without selection for three to five days and then were transferred to medium containing sorbitol as the sole carbon source. […] These portions were carefully separated from the main callus and transferred to fresh selection medium for further callus proliferation. Upon transfer to regeneration medium containing sorbitol as the sole carbon source, these calli sectors developed green pigmentation within 3-5 days and eventually formed green adventitious shoots and emblings (somatic embryo derived plantlets) (FIGS. 3a-b).

tobacco leaf pieces = experiment: Callus induction and shoot regeneration from tobacco leaves on different sugars as sole carbon source; assay type: cell-based; details: sole carbon source: sorbitol 16 g/L, fructose 15.8 g/L; 4 weeks in tissue culture
Protocol: To test whether sorbitol dehydrogenase can be used as a positive selection marker in tobacco, pieces of tobacco leaves were tested on media containing different sugars as a sole carbon source.
Sterile grown tobacco leaves were cut into pieces of approximately 0.5-1 cm^2. Leaf pieces were transferred onto MS media containing minimal organics (MSP002 from Caisson Laboratories, North Logan, Utah, USA), 1 mg/L 6-BAP (6-benzylaminopurine) in 1N NaOH, 100 ug/L NAA (α-naphtahalene acetic acid), and the following carbon sources: no sugar; sorbitol, (16 g/L); fructose, (15.8 g/L); sucrose (30 g/L). Explants were maintained in tissue culture for 4 weeks with the following light cycle: 16 hrs in the light at 23° C.; 8 hrs in the dark at 20° C.; relative humidity approximately 45%.

[2] = test system: Arabidopsis thaliana leaf and root explants; experiment: Calli growth of Arabidopsis thaliana leaf and root explants in the presence of different carbon sources; assay type: cell-based; details: sole carbon source as in Example 1; 4 weeks dark incubation at 25° C.
Protocol: Growth of cultures of Arabidopsis thaliana, a model dicot species, were also examined to determine if they were able to grow in the presence of sorbitol as a sole carbon source. Leaf and root explants were excised from sterile seedlings of Arabidopsis and were plated on medium containing maltose, fructose, or sorbitol, or no carbon supplement as described in Example 1.

[3] = test system: switchgrass (Panicum virgatum L. cv. 'Alamo') callus cultures; experiment: Growth of switchgrass callus cultures in the presence of different carbon sources; assay type: cell-based; details: wild-type callus; sole carbon source: maltose 83.3 mM, fructose 111 mM, sorbitol 41.2 mM; 4 weeks dark incubation at 28° C.
From the text: The in vitro response of various plants grown on medium supplemented with different sugar sources was investigated. For these purposes, switchgrass (Panicum virgatum L. cv. ‘Alamo’) was chosen as a representative monocot species. Highly embryogenic callus cultures of switchgrass were initiated from mature caryopses according to established procedures (Denchev, P. D. and B. V. Conger, Crop Sci., 34: 1623-1627 (1994)) and transferred to callus multiplication media [media consists of MS basal salts (product#MS002, Caisson Laboratories, North Logan, Utah, USA), 6-benzylaminopurine (BAP, […]), 2,4-dichlorophenoxyacetic acid (2,4-D, […]), and agar (8 g/L agar), pH 5.6]. The media was supplemented with carbon sources as indicated in the following concentrations: maltose (83.3 mM), fructose (111 mM), sorbitol (41.2 mM), or no carbon source. After 4 weeks of dark incubation at 28° C., the callus multiplication ability in the presence of various carbon supplements or no carbon supplement was visually examined.

OC[C@@H](O)[C@@H](O)[C@H](O)[C@H](O)CO [mannitol]
growth of tomato cells on the carbon source (tomato cells): do not grow

pMBXS323: pCAMBIA3300-derived plant transformation plasmid with CaMV35S promoter, hsp70 intron and sdh gene from Pseudomonas sp. KS-E1806
calli clumps showing formation of new growth [1]: 30-50%

OC[C@H]1O[C@H](O[C@H]2O[C@H](CO)[C@@H](O)[C@H](O)[C@H]2O)[C@H](O)[C@@H](O)[C@@H]1O [trehalose]
growth of tomato cells on the carbon source (tomato cells): do not grow

O=C(CO)[C@@H](O)[C@H](O)[C@H](O)CO [fructose]
callus generation / induction (tobacco leaf pieces): Callus induction
shoot regeneration (tobacco leaf pieces): shoot regeneration
callus growth of root and leaf cultures [2]: considerable callus growth
callus multiplication ability (visually examined) [3]: able to proliferate normally and displayed considerable callus growth

OC[C@H]1O[C@@H](O[C@H]2[C@H](O)[C@@H](O)C(O)O[C@@H]2CO)[C@H](O)[C@@H](O)[C@H]1O (stereo partly shown) [lactose]
growth of tomato cells on the carbon source (tomato cells): do not grow

OC[C@H]1O[C@H](O[C@H]2[C@H](O)[C@@H](O)[C@H](O)O[C@@H]2CO)[C@H](O)[C@@H](O)[C@@H]1O [maltose]
callus growth of root and leaf cultures [2]: considerable callus growth
callus multiplication ability (visually examined) [3]: able to proliferate normally and displayed considerable callus growth

OC[C@@H](O)[C@@H](O)[C@H](O)[C@@H](O)CO [sorbitol]
callus generation / induction (tobacco leaf pieces): Inhibited callus generation
shoot regeneration (tobacco leaf pieces): inhibited shoot regeneration
callus growth of root and leaf cultures [2]: little to no growth
callus multiplication ability (visually examined) [3]: remained dormant with minimal or no incremental growth; also recorded: reduced growth
growth of tomato cells on the carbon source (tomato cells): do not grow

OCc1ccccc1O[C@@H]1O[C@H](CO)[C@@H](O)[C@H](O)[C@H]1O [salicin]
growth of tomato cells on the carbon source (tomato cells): do not grow
